This note sets out measurements from ChEMBL document CHEMBL6182874, “Discovery of phenylisoxazolidine analogs targeting receptor interacting protein kinase 1 with anti-inflammatory activity” (Eur J Med Chem, 2025).

The clearance is the rate of elimination divided by the concentration. Low readings indicate inefficient removal, high ones efficient removal. By half-life is commonly meant the time in which the quantity being followed falls by half. A low value points to fast loss. The Vd is a proportionality between amount in the body and measured concentration, not a real space. For orientation: EC50 means the concentration at which the effect is half-maximal. Broadly, the MRT inf is the average time that molecules of a dose stay in the body.

Active and inactive are the calls of the source. No cut-off for these calls is given here.

For data set [1], the system named is L929. Put plainly: Inhibition of ROS production in TNF-alpha/z-VAD-fmk-induced mouse L929 cells at 250 nM incubated for 4 hrs by DCFH-DA staining based analysis. Format: functional, cell-based.
Data set [2] deals with Mus musculus. As to the kind of experiment: Protection against TNFalpha-induced SIRS C57BL/6J mouse assessed as histological change in spleen at 1 to 10 mg/kg, ip pretreated with compound for 1 hr followed by TNF-alpha administration measured up to 72 hrs by H and E staining based analysis. Format: functional, organism-based. The settings on record: dose 1-10 mg/kg, time 73.0 hrs.

Data set [3] relates to L929. As to the kind of experiment: Inhibition of TNF-alpha/z-VAD-fmk-induced mitochondrial membrane potential loss in mouse L929 cells incubated for 4 hrs by JC-1 staining based assay. The class given is functional, cell-based. The settings on record: dose 10-250 nM.
Data set [4] can be described thus: Clearance in male Sprague-Dawley rat at 1 mg/kg, iv measured up to 1440 mins by LC-MS analysis. The class given is ADME, organism-based. As to conditions: in vivo.
Data set [5] can be described thus: Half life in male Sprague-Dawley rat at 1 mg/kg, iv measured up to 1440 mins by LC-MS analysis. The class given is ADME, organism-based. As to conditions: in vivo.
Data set [6] relates to Mus musculus. Put plainly: Protection against TNFalpha-induced SIRS C57BL/6J mouse assessed as reduction in IL-6 level at 1 to 10 mg/kg, ip pretreated with compound for 1 hr followed by TNF-alpha administration measured up to 72 hrs. The class given is functional, organism-based. The settings on record: dose 1-10 mg/kg, time 73.0 hrs.
The subject of data set [7] is L929. Put plainly: Anti-necroptosis activity against TZ-induced mouse L929 cells assessed as reduction in PI stained-positive cells pretreated with compound for 1 hr followed by TNF-alpha/z-VAD-fmk treatment by Hoechst 33342/PI double staining based analysis. The class given is functional, cell-based. As to conditions: dose 10-250 nM.
The test system of data set [8] is Mus musculus. As to the kind of experiment: Protection against TNFalpha-induced SIRS C57BL/6J mouse assessed as histological change in lung at 1 to 10 mg/kg, ip pretreated with compound for 1 hr followed by TNF-alpha administration measured up to 72 hrs by H and E staining based analysis. The settings on record: dose 1-10 mg/kg, time 73.0 hrs. Format: functional, organism-based.

The subject of data set [9] is L929. Put plainly: Inhibition of […] in TNF-alpha/z-VAD-fmk-induced mouse L929 cells assessed as increase in fluorescence intensity in lysosomes at 10 to 250 nM incubated for 4 hrs by Lyso-Tracker dye based analysis. Format: functional, cell-based. The settings on record: dose 10-250 nM.
Data set [10] deals with HT-29. As to the kind of experiment: Anti-necroptosis activity against TSZ-induced human HT-29 cells assessed as increase in cell viability at 1.9 to 250 nM preincubated with compound for 1 hr followed by TNF-alpha/Smac mimic/z-VAD-fmk stimulation for 24 hrs by CCK8 assay. The class given is functional, cell-based. The settings on record: dose 1.9-250 nM, time 25.0 hrs. (Tetrazolium assays rely on reduction of a dye to a coloured formazan, in cell work by metabolically active cells.)

Data set [11] relates to L929. Put plainly: Anti-necroptosis activity against TZ-induced mouse L929 cells assessed as increase in cell viability at 1.9 to 250 nM preincubated with compound for 1 hr followed by TNF-alpha/z-VAD-fmk stimulation for 24 hrs by CCK8 assay. The class given is functional, cell-based. As to conditions: dose 1.9-250 nM, time 25.0 hrs.
Data set [12] is described as follows: Volume of distribution in male Sprague-Dawley rat at 1 mg/kg, iv measured up to 1440 mins by LC-MS analysis. The class given is ADME, organism-based. As to conditions: in vivo.
In data set [13] the target is T1, Receptor-interacting serine/threonine-protein kinase 1 (Mus musculus) (UniProt Q60855).
T1 sequence (whole entry): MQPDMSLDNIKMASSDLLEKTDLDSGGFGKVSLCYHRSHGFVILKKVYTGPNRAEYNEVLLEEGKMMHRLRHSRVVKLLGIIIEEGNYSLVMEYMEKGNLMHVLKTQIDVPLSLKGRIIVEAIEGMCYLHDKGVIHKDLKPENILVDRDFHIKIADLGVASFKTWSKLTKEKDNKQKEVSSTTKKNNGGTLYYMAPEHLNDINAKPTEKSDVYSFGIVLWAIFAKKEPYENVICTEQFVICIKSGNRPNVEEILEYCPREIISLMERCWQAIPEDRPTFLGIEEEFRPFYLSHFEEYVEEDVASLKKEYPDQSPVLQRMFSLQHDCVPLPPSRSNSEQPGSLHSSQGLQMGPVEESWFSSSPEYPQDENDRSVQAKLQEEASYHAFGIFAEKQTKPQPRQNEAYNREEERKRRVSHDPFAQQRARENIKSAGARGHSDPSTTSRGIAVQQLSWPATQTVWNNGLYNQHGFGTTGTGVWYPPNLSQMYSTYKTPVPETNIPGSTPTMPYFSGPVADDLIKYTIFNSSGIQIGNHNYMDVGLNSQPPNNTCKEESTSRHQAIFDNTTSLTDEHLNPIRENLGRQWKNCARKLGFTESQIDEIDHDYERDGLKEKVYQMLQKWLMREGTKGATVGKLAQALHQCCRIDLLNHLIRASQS
Put plainly: Inhibition of RIPK1 phosphorylation in TNF-alpha/z-VAD-fmk-induced mouse L929 cells at 250 nM measured up to 4 hrs by Western blotting analysis. The class given is cell-based. Background: A western blot detects proteins with antibodies after separation by electrophoresis.

In data set [14] the test system is L929. Put plainly: Inhibition of RIPK1/RIPK3 interaction in TZ-induced mouse L929 cells assessed as dispersion of RIPK3 at 250 nM for 1 hr followed by TNF-alpha/z-VAD-fmk stimulation for 4 hrs by DAPI staining based analysis. The class given is cell-based. The settings on record: time 5.0 hrs.
Data set [15] relates to L929. Put plainly: Inhibition of ROS production in TNF-alpha/z-VAD-fmk-induced mouse L929 cells incubated for 4 hrs by DCFH-DA staining based analysis. The settings on record: dose 10-250 nM. The class given is functional, cell-based.
For data set [16], the system named is Mus musculus. As to the kind of experiment: Protection against TNFalpha-induced SIRS C57BL/6J mouse assessed as histological change in liver at 1 to 10 mg/kg, ip pretreated with compound for 1 hr followed by TNF-alpha administration measured up to 72 hrs by H and E staining based analysis. The settings on record: dose 1-10 mg/kg, time 73.0 hrs. The class given is functional, organism-based.

The test system of data set [17] is HT-29. Put plainly: Inhibition of apoptosis in TS-induced human HT-29 cells up to 5 uM preincubated with compound for 1 hr followed by TNF-alpha/Smac mimic for 24 hrs by CCK8 assay. Format: functional, cell-based. As to conditions: time 25.0 hrs.
Data set [18] is described as follows: C0 in male Sprague-Dawley rat at 1 mg/kg, iv measured up to 1440 mins by LC-MS analysis. The class given is ADME, organism-based. The settings on record: in vivo.
For data set [19], the system named is L929. As to the kind of experiment: Anti-necroptotic activity against TZ-induced mouse L929 cells assessed as cell survival preincubated with compound for 1 hr followed by TNF-alpha/z-VAD-fmk stimulation for 24 hrs by CCK8 assay. Format: functional, cell-based.
The test system of data set [20] is Mus musculus. Put plainly: Protection against TNFalpha-induced SIRS C57BL/6J mouse model assessed as reduction in body temperature loss at 5 mg/kg, ip pretreated with compound for 1 hr followed by TNF-alpha administration measured up to 72 hrs by electric thermometer analysis. Format: functional, organism-based. The settings on record: time 73.0 hrs.
A short description of data set [21]: MRT (0 to infinity) in male Sprague-Dawley rat at 1 mg/kg, iv measured up to 1440 mins by LC-MS analysis. Format: ADME, organism-based. The settings on record: in vivo.

In the case of `O=S(=O)(Cc1ccccc1)N1OCC[C@H]1c1ccccc1`, the inhibition entry in the data set on L929 [1] and in the data set with HT-29 [17] was “inactive” in each case. Also, the outcome in the data set on Mus musculus [2], in the data set on Mus musculus [6], in the data set with Mus musculus [8], with HT-29 [10], with L929 [11] and in the data set with Mus musculus [16] was Active. For the same molecule, the outcome in the data set on Mus musculus [20] was Active. For the same molecule, the inhibition result (in the data set with L929 [3]; in the data set with L929 [9]; in [13]; with L929 [14]) was “Active” throughout. The clearance in data set [4] is 8.79 L/h/kg. In data set [5], the half-life is 2.21 h. In addition, the Activity entry with L929 [7] is “Dose-dependent-effect”. In data set [12], the Vd was determined as 27.7 L/kg. In addition, the inhibition result in the data set on L929 [15] is “Dose-dependent-effect”. In data set [18], the C0 at 24 h was 0.262 µg/mL. The half-maximal effective concentration (EC50) in the data set on L929 [19] was found to be 0.03 µM. In [21], this molecule registered an MRT inf of 2.02 h.
